Reference: patent US7276339B2 (H. Lundbeck A/S, priority 1998, dated 2007)
Entries after “also recorded” stand apart in the source; their conditions may differ. Non-standard residues stand in square brackets, D forms with d. Residues, ends and D or L forms follow the SMILES beside them. No end group written: not given here. NMeF = CN[C@@H](Cc1ccccc1)C(=O)O

Tests used:
[1] = target: rat spinal cord membrane receptor; test: [125I]D-Tyr-NPFF radioligand binding, rat spinal cord membranes; conditions: competition of [125I]D-Tyr-NPFF binding; * = differs from NPFF1
Excerpt: The binding profile of rat NPFF1 was compared to that of rat spinal cord membranes. […] (See * Table 2).

NPFF receptors = conditions: cited from earlier work; for inhibition of [125I](1DMe)Y8Fa binding: 10 μM
human NPFF1 receptor = target: T1, human NPFF1 receptor (Homo sapiens, UniProt Q9GZQ6); test: [125I]D-Tyr-NPFF radioligand binding, HEK-293 cells expressing human NPFF1; conditions: for Ki: Table 3, read-out: pKi ± SEM, human NPFF1 (converted)
T1 construct: To obtain a full-length hNPFF1 construct in the correct orientation; expressed in transfected cells; host or cells: HEK-293 (transient)
Description: (§1) Transfected cells from culture flasks are scraped into 5 ml of 20 mM Tris-HCl, 5 mM EDTA, pH 7.5, and lysed by sonication. The cell lysates are centrifuged at 1000 rpm for 5 min. at 4° C., and the supernatant is centrifuged at 30,000×g for 20 min. at 4° C. The pellet is suspended in binding buffer (50 mM Tris-HCl, 60 mM NaCl, 1 mM MgCl, 33 μM EDTA, 33 μM EGTA at pH 7.4 supplemented with 0.2% BSA, 2 μg/ml aprotinin, and 20 μM bestatin). Optimal membrane suspension dilutions, defined as the protein concentration required to bind less than 10% of the added radioligand, are added to 96-well polpropylene microtiter plates containing ^3H-labeled compound, unlabeled compounds, and binding buffer to a final volume of 250 μl. In equilibrium saturation binding assays membrane preparations are incubated in the presence of increasing concentrations of [^3H]-labeled compound. The binding affinities of the different compounds are determined in equilibrium competition binding assays, using [^125I]-labeled compound in the presence of ten to twelve different concentrations of the displacing ligands. Competition assay: 50 pM radioligand, 10-12 points. Binding reaction mixtures are incubated for 2 hr at 25° C., and the reaction stopped by filtration through a double layer of GF filters treated with 0.1% polyethyleneimine, using a cell harvester. Wash buffer: 50 mM Tris-HCl, 0.1% BSA. Radioactivity may be measured by scintillation counting and data are analyzed by a computerized non-linear regression program. Non-specific binding is defined as the amount of radioactivity remaining after incubation of membrane protein in the presence of 1 μM final concentration […]. Protein concentration may be measured by the Bradford method using Bio-Rad Reagent, with bovine serum albumin as a standard.
(§2) Additional pharmacological evaluation was done using 293 human embryonic kidney cells (HEK-293 cells) transiently expressing the genes encoding the human NPFF1, NPFF2, and rat NPFF1 receptors, as well as Cos-7 cells expressing the rat NPFF2 receptors.

human NPFF2 receptor = target: T2, human NPFF2 receptor (Homo sapiens, UniProt Q9Y5X5); test: [125I]D-Tyr-NPFF radioligand binding, HEK-293 cells expressing human NPFF2; conditions: for Ki: read-out: pKi ± SEM, human NPFF2 (converted)
T2 construct: BO89, was determined to be a full length clone with no point mutations; expressed in transfected cells; host or cells: HEK-293 (transient)
Description: as §1, §2

rat NPFF2 receptor [2] = target: T3, rat NPFF2 receptor (Rattus norvegicus, UniProt Q9EQD2); test: [125I]D-Tyr-NPFF radioligand binding, cloned rat NPFF2; conditions: for Ki: read-out: pKi ± SEM, rat NPFF2 (converted)
T3 construct: The full-length rat NPFF2 clone was amplified from rat spinal cord cDNA; expressed in transfected cells; host or cells: COS-7
Description: as §1, §2

rat NPFF2 receptor [3] = target: T3, rat NPFF2 receptor; test: Functional activity at cloned rat NPFF2 in COS-7 cells; assay type: cell-based
normotensive rats = test: Blood pressure in anesthetized normotensive rats, intravenous administration; assay type: in vivo, rat; conditions: 0.3 mg/kg, 1 minute before the agonist
Excerpt: Rats were anesthetized with urethane and PE50 cannulae were placed in the femoral artery and vein for blood pressure monitoring and drug administration, respectively.

anesthetized rats = test: Distension-induced rhythmic contraction (DIRC) model of the micturition reflex in anesthetized rats; assay type: in vivo, rat; conditions: i.v.
Description: The effects of compounds on the micturition reflex were assessed in the “distension-induced rhythmic contraction” (DIRC) model in rats. This model of the micturition reflex has been described in previous publications (e.g. 72, 73).
Female Sprague Dawley rats weighing approximately 300 g were anesthetized with subcutaneous urethane (1.2 g/kg). The trachea was cannulated with PE240 tubing to provide a clear airway throughout the experiment. A midline abdominal incision was made and the left and right ureters were isolated. The ureters were ligated distally (to prevent escape of fluids from the bladder) and cannulated proximally with PE10 tubing. The incision was closed using 4-0 silk sutures, leaving the PE10 lines routed to the exterior for the elimination of urine. The bladder was canulated via the transurethral route using PE50 tubing inserted 2.5 cm beyond the urethral opening. This cannula was secured to the tail using tape and connected to a pressure transducer. To prevent leakage from the bladder, the cannula was tied tightly to the exterior urethral opening using 4-0 silk.
To initiate the micturition reflex, the bladder was first emptied by applying pressure to the lower abdomen, and then filled with normal saline in 100 μl increments (maximum=2 ml) until spontaneous bladder contractions occurred (typically 20-40 mmHg at a rate of one contraction every 2 to 3 minutes. Once a regular rhythm was established, vehicle (saline) or test compounds were administered intravenously to examine their effects on bladder activity. The effect of a compound which inhibited the micturition reflex was expressed as its “disappearance time”, defined as the time between successive bladder contractions in the presence of the test compound minus the time between contractions before compound administration.

rat NPFF1 receptor [4] = target: T4, rat NPFF1 receptor (Rattus norvegicus, UniProt Q9EP86); test: [125I]D-Tyr-NPFF radioligand binding, HEK-293 cells expressing rat NPFF1; design: expressed in transfected cells; conditions: for Ki: Table 3, read-out: pKi ± SEM, rat NPFF1 (converted)
Description: as §1, §2

rat NPFF1 receptor [5] = target: T4, rat NPFF1 receptor; test: Functional activity at cloned rat NPFF1 in COS-7 cells; assay type: cell-based; design: expressed in transfected cells; host or cells: COS-7 (transient); conditions: COS-7 cells
rat NPFF1 receptor [6] = target: T4, rat NPFF1 receptor; test: [125I]D-Tyr-NPFF radioligand binding, membranes of COS-7 cells transiently expressing cloned rat NPFF1; design: expressed in transfected cells; host or cells: COS-7 (transient)
Description: as §1, with “The pellet is suspended in binding buffer (50 mM Tris-HCl, 60 mM NaCl, 1 mM MgCl, 33 μM EDTA, 33 μM EGTA at pH 7.4 supplemented with 0.2% BSA, 2 μg/ml aprotinin, and 20 μM bestatin).” left out, “[…],” for “are added to 96-well polpropylene microtiter plates containing ^3H-labeled compound,”, “The binding affinities of the different compounds are determined in equilibrium competition binding assays, using [^125I]-labeled compound in the presence of ten to twelve different concentrations of the displacing ligands.” left out
Cos-7 cells transiently expressing the gene encoding the novel rat NPFF1 receptor were used for pharmacological evaluation.

NPFF1 (SNORF2) = target: T5, NPFF1 (SNORF2) (Rattus norvegicus, UniProt Q9EP86); test: Voltage-clamp electrophysiology, Xenopus oocytes injected with SNORF2 (NPFF1) and chimeric Gαq/z RNA; assay type: cell-based; conditions: 1 μM; oocytes with SNORF2 + Gαq/z; holding potential −80 mV
T5 construct: linearized plasmids or PCR products containing the complete coding region of the genes; expressed in transfected cells; host or cells: Xenopus laevis oocytes injected with synthetic RNA (T7 transcripts)
Description: (§3) Oocytes were harvested from Xenopus laevis and injected with mRNA transcripts as previously described (Quick and Lester, 1994; Smith et al., 1997). […] Three to eight hours prior to recording, oocytes were injected with 500 pg Gαq/z mRNA in order to observe coupling to Ca^++ activated Cl^− currents. Dual electrode voltage clamp (Axon Instruments Inc.) was performed using 3 M KCl-filled glass microelectrodes having resistances of 1-2 Mohm. Unless otherwise specified, oocytes were voltage clamped at a holding potential of −80 mV. During recordings, oocytes were bathed in continuously flowing (1-3 ml/min) medium containing 96 mM NaCl, 2 mM KCl, 1.8 mM CaCl2, 1 mM MgCl2, and 5 mM HEPES, pH 7.5 (ND96). Drugs were applied either by local perfusion from a […] glass capillary tube fixed at a distance of 0.5 mm from the oocyte, or by switching from a series of gravity fed perfusion lines.
(§4) Heterologous expression of GPCRs in Xenopus oocytes has been widely used to determine the identity of signaling pathways activated by agonist stimulation (Gundersen et al., 1983; Takahashi et al., 1987). Activation of the phospholipase C (PLC) pathway is assayed by applying test compound in ND96 solution to oocytes previously injected with mRNA for the mammalian receptor and observing inward currents at a holding potential of −80 mV. The appearance of currents that reverse at −25 mV and display other properties of the Ca^++-activated Cl^− (chloride) channel is indicative of mammalian receptor-activation of PLC and release of IP3 and intracellular Ca^++.

NPFF2 (NPFF-like) = target: T6, NPFF2 (NPFF-like) (Homo sapiens, UniProt Q9Y5X5); test: Voltage-clamp electrophysiology, Xenopus oocytes injected with NPFF-like (NPFF2) and chimeric Gαq/z RNA; assay type: cell-based; conditions: 1 μM, holding potential −80 mV
T6 construct: linearized plasmids or PCR products containing the complete coding region of the genes; expressed in transfected cells; host or cells: Xenopus laevis oocytes injected with mRNA from ligation PCR products or linearized BO89
Description: For expression of NPFF2, mRNA transcripts were generated as described for NPFF1, using PCR products from ligation reactions or linearized DNA from BO89 as DNA templates. Oocytes were injected with 5-50 ng NPFF2 mRNA and incubated as previously described.
as §3, §4

[7] = Table 3, HEK-293 cells, [125I]D-Tyr-NPFF
[8] = Table 3, title HEK-293 cells (text: Cos-7), [125I]D-Tyr-NPFF

T4 sequence (Q9EP86 whole entry): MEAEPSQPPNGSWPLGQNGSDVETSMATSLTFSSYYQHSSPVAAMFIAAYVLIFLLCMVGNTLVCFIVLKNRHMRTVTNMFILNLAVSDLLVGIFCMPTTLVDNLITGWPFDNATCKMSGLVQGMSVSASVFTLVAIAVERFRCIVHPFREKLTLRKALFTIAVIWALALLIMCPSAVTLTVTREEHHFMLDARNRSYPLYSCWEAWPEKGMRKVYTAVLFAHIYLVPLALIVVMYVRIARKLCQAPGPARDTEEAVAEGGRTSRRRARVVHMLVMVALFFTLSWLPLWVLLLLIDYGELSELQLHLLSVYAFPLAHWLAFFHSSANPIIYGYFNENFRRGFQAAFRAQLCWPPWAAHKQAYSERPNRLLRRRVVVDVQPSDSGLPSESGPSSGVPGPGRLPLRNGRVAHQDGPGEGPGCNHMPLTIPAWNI
T3 sequence (Q9EQD2 whole entry): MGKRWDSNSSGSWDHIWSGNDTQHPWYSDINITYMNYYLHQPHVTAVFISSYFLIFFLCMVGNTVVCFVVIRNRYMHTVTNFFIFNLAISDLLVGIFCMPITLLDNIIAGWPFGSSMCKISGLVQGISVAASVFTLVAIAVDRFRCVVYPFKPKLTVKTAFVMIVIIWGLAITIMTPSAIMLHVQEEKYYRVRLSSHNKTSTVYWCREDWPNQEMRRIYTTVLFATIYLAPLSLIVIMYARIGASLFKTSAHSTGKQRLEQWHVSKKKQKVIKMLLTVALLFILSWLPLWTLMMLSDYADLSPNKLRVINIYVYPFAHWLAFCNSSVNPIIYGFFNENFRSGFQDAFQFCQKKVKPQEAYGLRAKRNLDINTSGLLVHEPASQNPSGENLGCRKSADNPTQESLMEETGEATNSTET
T1 sequence (Q9GZQ6 whole entry): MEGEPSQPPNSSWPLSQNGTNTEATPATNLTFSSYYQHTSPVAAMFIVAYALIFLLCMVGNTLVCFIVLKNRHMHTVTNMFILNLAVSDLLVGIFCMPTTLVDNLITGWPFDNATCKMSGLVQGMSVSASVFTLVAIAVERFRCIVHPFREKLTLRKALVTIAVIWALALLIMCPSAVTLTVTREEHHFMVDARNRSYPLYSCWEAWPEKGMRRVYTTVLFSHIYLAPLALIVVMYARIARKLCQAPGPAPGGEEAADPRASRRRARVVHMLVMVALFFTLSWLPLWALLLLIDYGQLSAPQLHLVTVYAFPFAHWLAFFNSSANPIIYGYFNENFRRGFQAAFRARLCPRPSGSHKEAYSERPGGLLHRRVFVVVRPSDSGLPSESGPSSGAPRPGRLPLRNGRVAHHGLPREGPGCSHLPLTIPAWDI
T6 sequence (Q9Y5X5 103-522): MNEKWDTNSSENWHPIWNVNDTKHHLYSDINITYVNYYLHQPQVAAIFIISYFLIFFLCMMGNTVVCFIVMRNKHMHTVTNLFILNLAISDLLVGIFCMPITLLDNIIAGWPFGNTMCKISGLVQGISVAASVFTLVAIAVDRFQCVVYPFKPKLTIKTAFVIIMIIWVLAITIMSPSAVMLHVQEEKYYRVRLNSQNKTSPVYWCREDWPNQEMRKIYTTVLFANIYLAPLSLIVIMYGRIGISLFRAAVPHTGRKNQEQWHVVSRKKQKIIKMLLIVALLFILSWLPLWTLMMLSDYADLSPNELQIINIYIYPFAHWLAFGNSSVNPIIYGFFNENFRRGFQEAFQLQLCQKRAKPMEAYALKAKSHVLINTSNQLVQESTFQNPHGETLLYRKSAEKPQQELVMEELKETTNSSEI
T2 sequence (Q9Y5X5 103-522): as above
T5 sequence (Q9EP86 whole entry): as the sequence (Q9EP86 whole entry) above

## CC(C)C[C@H](NC(=O)[C@H](N)Cc1ccc(O)cc1)C(=O)N(C)[C@@H](Cc1ccccc1)C(=O)N[C@@H](CCC(N)=O)C(=O)N1CCC[C@H]1C(=O)N[C@@H](CCC(N)=O)C(=O)N[C@@H](CCCNC(=N)N)C(=O)N[C@@H](Cc1ccccc1)C(N)=O [(D-Tyr^1-(NMe)Phe^3)NPFF] (H-[dY]L[NMeF]QPQRF-NH2; N-terminus assumed)
[1]
  pKi for rat spinal cord membrane receptor binding, MEAN: *9.724
NPFF receptors; spinal cord membranes, read-out: Ki, inhibition of [125I](1DMe)Y8Fa binding
  Ki: 0.16 nM

## NC(N)=NCCC[C@@H](NC(=O)C(c1ccccc1)c1ccccc1)C(=O)NCc1ccc(O)cc1 [BIBP 3226]
Human NPFF1 receptor; Table 3
  pKi ± SEM, human NPFF1: 6.9 ± 0.04
Human NPFF2 receptor; [7]
  pKi ± SEM, human NPFF2: 5.9 ± 0.04
Rat NPFF2 receptor [2]; [8]
  pKi ± SEM, rat NPFF2: 5.8±0.02
Rat NPFF2 receptor [3]
  EC50: 944 nM
  Maximum Effect (% NPFF), rat NPFF2: 67 % NPFF
Normotensive rats
  block of pressor response to fPP: completely blocked
  block of pressor response to pLeu,Pro-NPY: completely blocked
  reduction of pressor response to NPFF: ~50%
Anesthetized rats; 0.3 mg/kg
  block of inhibitory effect of fPP on micturition: not blocked
  block of inhibitory response to NPFF on micturition: did not block
Rat NPFF1 receptor [4]; Table 3
  pKi ± SEM, rat NPFF1: 7.6±0.04
Rat NPFF1 receptor [5]
  Maximum Effect (% NPFF), rat NPFF1: 0 % NPFF
Rat NPFF1 receptor [5]; read-out: EC50, rat NPFF1
  EC50: > 10000 nM

## CSCC[C@@H](NC(=O)[C@@H](N)Cc1ccccc1)C(=O)N[C@@H](CCCNC(=N)N)C(=O)N[C@@H](Cc1ccccc1)C(N)=O [D-Met-FMRF amide]
Human NPFF1 receptor
  Ki: 251 nM
Human NPFF2 receptor; [7]
  Ki: 398 nM
Rat NPFF2 receptor [2]; [8]
  Ki: 631 nM
Rat NPFF1 receptor [4]
  Ki: 631 nM

## CN1CC[C@]23c4c5ccc(O)c4O[C@H]2[C@@H](O)C=C[C@H]3[C@H]1C5 [morphine]
NPFF receptors
  inhibition of [125I](1DMe)Y8Fa binding: No inhibition

## CSCC[C@H](NC(=O)[C@H](CC(C)C)NC(=O)CNC(=O)[C@H](Cc1ccccc1)NC(=O)[C@H](Cc1ccccc1)NC(=O)[C@H](CCC(N)=O)NC(=O)[C@H](CCC(N)=O)NC(=O)[C@@H]1CCCN1C(=O)[C@H](CCCCN)NC(=O)[C@@H]1CCCN1C(=O)[C@@H](N)CCCN=C(N)N)C(N)=O [substance P]
NPFF receptors
  inhibition of [125I](1DMe)Y8Fa binding: No inhibition

## APSEPHHPGDQATQDQLAQYYSDLYQYITFVTRPRF-NH2 (C-terminus assumed) [fPP]
[1]
  pKi for rat spinal cord membrane receptor binding, MEAN: *9.118
Human NPFF2 receptor; from competition binding pKi
  fold greater affinity for human NPFF2 compared to human NPFF1: 77 fold
Rat NPFF2 receptor [2]; from competition binding pKi
  fold greater affinity for rat NPFF2 compared to rat NPFF1: 31 fold
Anesthetized rats; fPP 0.1 mg/kg
  effect on distension-induced rhythmic contractions of the bladder: inhibited
Rat NPFF1 receptor [6]; competition of [125I]D-Tyr-NPFF binding, COS-7 membranes
  pKi for cloned rat NPFF1 receptor binding in COS-7 cells, MEAN: 5.5
Rat NPFF1 receptor [6]; up to 1 uM
  displacement of [125I]D-Tyr-NPFF binding on the NPFF1 receptor: did not displace

## H-AGEGLSSPFWSLAAPQRF-NH2 [A18Fa]
[1]
  pKi for rat spinal cord membrane receptor binding, MEAN: *9.000
Human NPFF1 receptor
  Ki: 63.1 nM
Human NPFF2 receptor; [7]
  Ki: 1.26 nM
Rat NPFF2 receptor [2]; [8]
  Ki: 6.31 nM
NPFF1 (SNORF2)
  inward current response: robust inward currents
NPFF2 (NPFF-like)
  inward current response: activated similar inward currents
Rat NPFF1 receptor [4]
  Ki: 31.6 nM

## NPY
NPFF2 (NPFF-like)
  inward current response: failed to activate; also recorded: no response
NPFF receptors
  inhibition of [125I](1DMe)Y8Fa binding: No inhibition

## neurokinin A
NPFF2 (NPFF-like)
  inward current response: failed to activate; also recorded: no response

## orexin A (QPLPDCCRQKTCSCRLYELLHGAGNHAAGILTL; ends and bridges not checked; cysteine pairing not given here; UniProt O43612 34-66, looked up)
NPFF2 (NPFF-like)
  inward current response: failed to activate; also recorded: no response
